Laboratory results taken from paper PMC9814838, “The orphan nuclear receptor Nurr1 is responsive to non-steroidal anti-inflammatory drugs” (Communications Chemistry, 2020).
Entries after “also recorded” stand apart in the source; their conditions may differ. No end group written: not given here. fluorescein = fluorescein label on the N-terminus

T1: NOR1 (Homo sapiens, UniProt Q92570)
T1 construct: NOR1 (isoform alpha; uniprot entry: hNOR1–Q92570-1, residues 393–626); expressed in transfected cells; host or cells: HEK293T
T1 sequence (Q92570 393-626): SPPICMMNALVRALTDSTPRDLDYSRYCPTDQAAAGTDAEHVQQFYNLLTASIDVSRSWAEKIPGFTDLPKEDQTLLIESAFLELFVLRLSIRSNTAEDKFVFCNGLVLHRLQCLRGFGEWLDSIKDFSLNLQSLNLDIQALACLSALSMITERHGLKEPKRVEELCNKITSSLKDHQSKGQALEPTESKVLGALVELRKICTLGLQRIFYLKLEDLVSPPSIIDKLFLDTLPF


How the values were obtained:
Nurr1 = target: T2, Nurr1 (Homo sapiens, UniProt P43354); assay: Gal4-Nurr1 hybrid reporter gene assay in HEK293T cells; type: cell-based; conditions: for Nurr1 activity 10μM (mean fold activation) / Nurr1 activity 30μM (mean fold activation): primary screen, n ≥ 2, ^# not significant vs VP16 control
T2 construct: Nurr1 (uniprot entry: hNURR1–P43354, residues 360–598); expressed in transfected cells; host or cells: HEK293T
T2 sequence (P43354 360-598): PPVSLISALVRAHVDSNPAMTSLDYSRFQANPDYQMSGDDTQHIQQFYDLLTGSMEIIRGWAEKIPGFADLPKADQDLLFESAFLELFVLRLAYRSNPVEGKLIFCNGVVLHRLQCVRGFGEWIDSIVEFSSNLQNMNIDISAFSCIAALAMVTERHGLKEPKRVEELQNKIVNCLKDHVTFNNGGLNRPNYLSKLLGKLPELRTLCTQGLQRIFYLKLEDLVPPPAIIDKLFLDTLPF

Nur77 = target: T3, Nur77 (Homo sapiens, UniProt P22736); assay: Gal4-Nur77 hybrid reporter gene assay in HEK293T cells; type: cell-based; conditions: for Nur77 activity 10μM (mean fold activation) / Nur77 activity 30μM (mean fold activation): primary screen, n ≥ 2, ^# not significant vs VP16 control
T3 construct: Nur77 (uniprot entry: hNUR77–P22736, residues 358–598); expressed in transfected cells; host or cells: HEK293T
T3 sequence (P22736 358-598): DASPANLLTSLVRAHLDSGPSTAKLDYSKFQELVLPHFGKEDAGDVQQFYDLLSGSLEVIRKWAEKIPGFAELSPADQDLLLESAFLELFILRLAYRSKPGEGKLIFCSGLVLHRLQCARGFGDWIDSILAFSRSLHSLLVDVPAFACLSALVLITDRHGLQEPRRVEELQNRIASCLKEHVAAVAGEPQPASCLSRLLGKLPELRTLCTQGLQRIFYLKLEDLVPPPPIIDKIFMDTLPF

NOR1 = target: T1, NOR1; assay: Gal4-NOR1 hybrid reporter gene assay in HEK293T cells; type: cell-based; conditions: for Nor1 activity 10μM (mean fold activation) / Nor1 activity 30μM (mean fold activation): primary screen, n ≥ 2, ^# not significant vs VP16 control
NBRE: Nurr1 monomer = target: T4, NBRE: Nurr1 monomer (Homo sapiens, UniProt P43354); assay: Full-length Nurr1 reporter gene assay on NBRE response element; type: cell-based; conditions: full-length human Nurr1; HEK293T; mean ± SD
T4 construct: the activity of full-length human Nurr1 in cellular settings; host or cells: HEK293T
T4 sequence (P43354 whole entry): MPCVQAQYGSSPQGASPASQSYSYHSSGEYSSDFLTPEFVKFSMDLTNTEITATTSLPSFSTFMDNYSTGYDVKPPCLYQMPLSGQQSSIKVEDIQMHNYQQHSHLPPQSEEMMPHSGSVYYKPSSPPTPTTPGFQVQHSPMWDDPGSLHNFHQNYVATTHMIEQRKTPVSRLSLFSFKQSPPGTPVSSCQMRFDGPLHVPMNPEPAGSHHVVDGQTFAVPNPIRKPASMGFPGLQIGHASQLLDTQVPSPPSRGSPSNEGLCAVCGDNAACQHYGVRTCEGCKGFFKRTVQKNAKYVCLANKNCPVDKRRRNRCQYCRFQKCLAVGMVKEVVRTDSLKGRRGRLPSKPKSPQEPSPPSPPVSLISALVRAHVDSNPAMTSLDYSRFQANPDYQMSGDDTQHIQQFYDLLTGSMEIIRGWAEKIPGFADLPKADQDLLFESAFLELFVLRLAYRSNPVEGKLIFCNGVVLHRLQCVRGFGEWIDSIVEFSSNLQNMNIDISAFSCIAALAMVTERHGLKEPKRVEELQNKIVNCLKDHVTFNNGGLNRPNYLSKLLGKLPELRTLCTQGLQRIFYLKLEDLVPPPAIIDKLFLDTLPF

NurRE: Nurr1 homodimer = target: T5, NurRE: Nurr1 homodimer (Homo sapiens, UniProt P43354); assay: Full-length Nurr1 reporter gene assay on NurRE response element; type: cell-based; conditions: full-length human Nurr1; HEK293T; mean ± SD
T5 construct: the activity of full-length human Nurr1 in cellular settings; host or cells: HEK293T
T5 sequence (P43354 whole entry): as above

[1] = target: T6, DR5: Nurr1–RXRα heterodimer (Homo sapiens, UniProt P43354); assay: Full-length Nurr1 reporter gene assay on DR5 response element; type: cell-based; conditions: full-length human Nurr1 and RXRα overexpressed; HEK293T; mean ± SD
T6 construct: the activity of full-length human Nurr1 in cellular settings; host or cells: HEK293T
T6 sequence (P43354 whole entry, one chain of several): as the sequence (P43354 whole entry) above

Nurr1 LBD homodimer = target: T7, Nurr1 LBD homodimer (Homo sapiens, UniProt P43354); assay: Nurr1 homodimerization HTRF (GFP-Nurr1 LBD vs Tb-labeled Nurr1 LBD); type: biochemical; conditions: cell-free; ligand 100 µM
T7 construct: Nurr1 (uniprot entry: P43354-1, residues 364–598); MBP-Asn10 linker (N, cleaved yes); His8-Tag (N, cleaved yes); His10-Tag (N, cleaved yes); made in house; host or cells: E. coli T7 express (with pGro7)
T7 sequence (P43354 364-598): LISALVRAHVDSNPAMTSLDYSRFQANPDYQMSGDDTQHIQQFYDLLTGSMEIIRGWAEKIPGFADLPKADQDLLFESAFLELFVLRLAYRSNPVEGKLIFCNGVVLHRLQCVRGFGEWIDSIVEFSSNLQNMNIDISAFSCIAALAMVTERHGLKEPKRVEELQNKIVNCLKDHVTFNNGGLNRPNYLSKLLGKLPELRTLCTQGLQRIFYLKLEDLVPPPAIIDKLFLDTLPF
Description: Strength and modulation of the formation of the heterodimer composed of the LBDs of Nurr1 and RXRα was investigated by titration of GFP-RXRα LBD against a fixed concentration of Nurr1 LBD. Assay solutions were prepared in HTRF assay buffer supplemented with 0.1% (w/v) CHAPS as well as 1% DMSO with test compounds at 100 µM or DMSO alone as negative control. […] Free GFP was added to keep the total GFP content stable at 4 µM throughout the entire series in order to suppress artefacts from changes in degree of diffusion enhanced FRET. Samples were equilibrated at RT for 2 h before FI520 and FI620 were recorded after excitation at 340 nm, and the HTRF signal was calculated as described above.

Nurr1–NCoR-1 interaction = target: T8, Nurr1–NCoR-1 interaction (Homo sapiens, UniProt P43354); assay: Nurr1–NCoR-1 interaction HTRF (GFP-Nurr1 LBD titrated against Tb-labeled NCoR-1); type: biochemical; conditions: cell-free; ligand fixed at 100 µM
T8 construct: Nurr1 (uniprot entry: P43354-1, residues 364–598); His10-Tag (N, cleaved yes); made in house; host or cells: E. coli T7 express (with pGro7)
T8 sequence (P43354 364-598): as above
Description: Since ligand concentration was fixed in this setting, interference with the HTRF system is less prone to generate potential artifacts.
To maintain a constant GFP concentration, free GFP protein was added to the dilution series. The experiments were performed in HTRF assay buffer (150 mM KF, 25 mM HEPES pH 7.5 (KOH), 5% (w/v) Glycerol, supplemented with 0.1% (w/v) CHAPS and 5 mM DTT) with 1% DMSO in an assay volume of 20 µl. After 1 h incubation at RT, fluorescence intensities after excitation at 340 nm were recorded at 520 nm for GFP acceptor fluorescence and 620 nm for Tb-SA donor fluorescence and the HTRF signal was calculated as described above.

Gal4-VP16 = target: T9, Gal4-VP16 (Human herpesvirus 1, UniProt P06492); type: cell-based; conditions: n ≥ 4
T9 construct: host or cells: HEK293T

[2] = target: T10, biotinylated recombinant Nurr1 LBD (Tb-labeled through Tb-cryptate streptavidin) (human, UniProt P43354-1 364-598, biotin on the lysine residue in the Avi-Tag); assay: AlphaScreen or HTRF; co-regulator recruitment: biotinylated Nurr1 LBD 3 nM on Tb-SA 3 nM (donor), fluorescein-labeled peptide 100 nM (acceptor); HTRF assay buffer (25 mM HEPES pH 7.5, 150 mM KF, 10% glycerol, 5 mM DTT) with 0.1% CHAPS; 1% DMSO alone or with AQ, CQ, MFA, parecoxib or oxaprozin at 100 µM (dose-response too); 2 h at RT; conditions: both partners purified
T10 construct: In the assays coupled to terbium cryptate streptavidin conjugate (Tb-SA) as FRET donor; also called Tb-labeled Nurr1 LBD; Tb-cryptate-labeled Nurr1 LBD; source: E. coli T7 express with pGro7, purified (IMAC, TEV cleavage, amylose resin, birA biotinylation, monomeric avidin, SEC); not shown: MBP, N-terminal, cleaved; His8, N-terminal, cleaved; Avi-Tag, N-terminal, kept

[3] = dash = not reported as active versus VP16 control (p < 0.05)
[4] = compared to 0.1% DMSO, mean ± SD

Molecule	Nurr1 activity 10μM (mean fold activation) (Nurr1) [fold]	Nurr1 activity 30μM (mean fold activation) (Nurr1)	Nur77 activity 10μM (mean fold activation) (Nur77) [fold]	Nur77 activity 30μM (mean fold activation) (Nur77)	Nor1 activity 10μM (mean fold activation) (NOR1) [fold]	Nor1 activity 30μM (mean fold activation) (NOR1)	other results
CS(=O)(=O)c1ccc(C2=C(c3ccccc3)C(=O)OC2)cc1 [rofecoxib]	1.02	0.92 fold	0.93	0.91 fold	0.95	1.01 fold	–
O=C(O)c1ccccc1Nc1cccc(C(F)(F)F)c1 [flufenamic acid]	1.14	toxic	0.99	toxic	1.36	toxic	–
CC(=O)Oc1ccccc1C(=O)O [acetylsalicylic acid]	1.02	0.92 fold	0.98	0.97 fold	1.03	0.93 fold	–
CS(=O)(=O)Nc1ccc([N+](=O)[O-])cc1Oc1ccccc1 [nimesulid]	1.00	0.89 fold	0.90	toxic	0.91	0.84 fold	–
Cc1ccc(C(=O)c2ccc(CC(=O)O)n2C)cc1 [tolmetin]	1.08	1.13 fold	1.10	0.97 fold	1.08	1.00 fold	–
CC(C(=O)O)c1cccc(C(=O)c2ccccc2)c1 (centres unmarked) [ketoprofen]	1.00	0.94 fold	1.04	0.88 fold	1.10	0.96 fold	–
CCCCC1C(=O)N(c2ccccc2)N(c2ccccc2)C1=O [phenylbutazone]	0.94	1.04 fold	0.83	0.81 fold	0.94	1.02 fold	–
CCN(CC)CCCC(C)Nc1ccnc2cc(Cl)ccc12 (centres unmarked) [CQ, chloroquine]	–	–	–	–	–	–	EC50 (Nurr1; HEK293T, mean ± SD, n≥3): 47 µM; EC50 (NBRE: Nurr1 monomer): 38 µM; EC50 (NurRE: Nurr1 homodimer): 54 µM; EC50 [1]: 57 µM; Homodimerization (effect of ligand) (Nurr1 LBD homodimer): promoted homodimerization; also recorded: Promotes dimerization; NCoR-1 affinity (effect of ligand) (Nurr1–NCoR-1 interaction): promoted the Nurr1–NCoR-1 interaction; also recorded: Enhances affinity
Cc1cc(NC(=O)C2=C(O)c3ccccc3S(=O)(=O)N2C)no1 [isoxicam]	0.98	0.90 fold	0.96	0.80 fold	1.02	0.87 fold	–
O=C(O)c1ccccc1O [salicylic acid]	1.08	1.02 fold	1.06	1.02 fold	1.01	0.99 fold	–
CN1C(C(=O)Nc2ccccn2)=C(O)c2sc(Cl)cc2S1(=O)=O [lornoxicam]	0.93	0.86 fold	0.86	0.64 fold	0.92	0.73 fold	Nurr1 activity in words or dash (Nurr1; [3]): without affecting Nurr1 activity; IC50 (Nur77; HEK293T, mean ± SD, n≥3): 9.4 ± 6.3 µM; Nur77 min./max. activation (Nur77; [4]): 0.63 ± 0.09; Nur77 activity in words or dash (Nur77; [3]): inverse agonism; IC50 (NOR1; HEK293T, mean ± SD, n≥3, read-out: NOR1 IC50): 24 ± 3 µM; NOR1 min./max. activation (NOR1; [4]): 0.62 ± 0.02; NOR1 activity in words or dash (NOR1; [3]): inverse agonism
CC(C(=O)O)c1ccc(C(=O)c2ccccc2)s1 (centres unmarked) [tiaprofenic acid]	1.52	1.46 fold	1.35	1.38 fold	1.37	1.42 fold	Nurr1-dependent reporter activity in primary screen (fold activation) (Nurr1; 10 or 30 µM): > 1.5 fold; Control experiments on Gal4-VP16 (non-specific reporter effects) (Gal4-VP16): non-specific activity
fluorescein-VTLTSPLLVNLLQSDISAG (also called TRBP; source: bought: ThermoFisher Scientific (Life Technologies)) [nuclear receptor co-activator 6 (NCoA6, also termed PRIPRAP250) peptide, fluorescein-labeled]	–	–	–	–	–	–	binding result [2]: binds
fluorescein-HASTNMGLEAIIRKALMGKYDQW (also called NCoR-2; source: bought: ThermoFisher Scientific (Life Technologies)) [silencing mediator for retinoid and thyroid hormone receptor (SMRT) ID2 peptide, fluorescein-labeled]	–	–	–	–	–	–	binding result [2]: binds
fluorescein-LPYEGSLLLKLLRAPVEEV (source: bought: ThermoFisher Scientific (Life Technologies)) [D22 peptide, fluorescein-labeled]	–	–	–	–	–	–	binding result [2]: binds
fluorescein-RTHRLITLADHICQIITQDFARN (also called NCoR-1; source: bought: ThermoFisher Scientific (Life Technologies)) [nuclear receptor co-repressor (NCOR) ID1 peptide, fluorescein-labeled]	–	–	–	–	–	–	binding result [2]: binds
fluorescein-SHQKVTLLQLLLGHKNEEN (also called RIP140L6; source: bought: ThermoFisher Scientific (Life Technologies))	–	–	–	–	–	–	binding result [2]: binds
